{
  "source": "paper PMC5833010",
  "about": "(ACS Central Science, 2018)",
  "key": {"AtD14-GFP fusion protein": {"molecular_target": "T1, AtD14-GFP fusion protein (Arabidopsis thaliana, UniProt Q9SQR3)", "T1 sequence (Q9SQR3 1-267)": "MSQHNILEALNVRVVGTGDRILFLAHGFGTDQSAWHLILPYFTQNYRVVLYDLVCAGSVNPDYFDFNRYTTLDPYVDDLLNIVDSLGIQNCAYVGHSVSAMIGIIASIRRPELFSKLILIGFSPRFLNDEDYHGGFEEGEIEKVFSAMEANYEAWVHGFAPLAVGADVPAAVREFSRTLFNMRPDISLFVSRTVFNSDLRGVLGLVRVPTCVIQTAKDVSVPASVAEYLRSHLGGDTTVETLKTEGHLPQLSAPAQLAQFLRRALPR", "assay": "AtD14-GFP degradation in 35S::AtD14-GFP/atd14-1 seedlings", "type": "in vivo", "conditions": "1 μM (+)-GR24 alone, 24 h"}, "BRC1": {"system": "BRC1", "assay": "qRT-PCR of strigolactone-responsive gene BRC1 in seedlings", "type": "in vivo, Arabidopsis", "conditions": "10-day-old seedlings, 1 μM (+)-GR24 alone, 24 h"}, "STH7": {"system": "STH7", "assay": "qRT-PCR of strigolactone-responsive gene STH7 in seedlings", "type": "in vivo, Arabidopsis", "conditions": "10-day-old seedlings, 1 μM (+)-GR24 alone, 24 h"}},
  "data": [
    {"substance": "(+)-GR24", "values": [
      {"measurement": "GFP signal in hypocotyl (AtD14-GFP)", "setting": "AtD14-GFP fusion protein", "value": "striking reduction"},
      {"measurement": "expression of BRC1", "setting": "BRC1", "value": "increased"},
      {"measurement": "expression of STH7", "setting": "STH7", "value": "increased"}
    ]}
  ]
}
